The values that follow come from publication PMC12144822 (Parasites & Vectors, 2025).

Data set [1] concerns human and canine GABARs. The data set can be described thus: Voltage-clamp inhibition, summary over human and canine receptors. It is filed as cell-based. Conditions: tested up to 30 μM. On the procedure: (§1) Defoliculated X. laevis oocytes ordered from Ecocyte Bioscience (Dortmund, Germany) were microinjected with 15–25 nl of cRNA solution (5–50 ng/μl) per oocyte using an automated injector (Roboinject; Multi Channel Systems MCS GmbH, Reutlingen, Germany) and then incubated at 18 °C. All recordings were made 1–5 days post-cRNA injection and were performed at 18 ± 4 °C. Cells were superfused with OR2 medium (NaCl 88 mM, KCl 2.5 mM, HEPES 5 mM, CaCl2•2H2O 1.8 mM, MgCl2•7H2O 1.0 mM, pH 7.4). To ensure that γ2 subunits were integrated into the heteropentamers, we injected fivefold more γ2 than the other subunit cRNAs. Diazepam is a positive allosteric modulator of GABAR only if γ2 subunits are present. Therefore, we used this method to confirm the presence of human and dog GABAA receptor containing the γ2 subunit.
(§2) Voltage-clamp measurements were performed as described by Rufener et al.. Oocytes were impaled with two electrodes filled with 3 M KCl, and their membrane potentials were maintained at − 80 mV throughout the experiment. […] Recordings were performed using an automated process equipped with standard two-electrode voltage-clamp configuration (HiClamp system; Multi Channel Systems MCS GmbH). Data were filtered at 10 Hz, captured at 100 Hz and analyzed using proprietary data acquisition and analysis software in MATLAB (Mathworks Inc., Natick, MA, USA). Additional analyses were performed using Excel (Microsoft, Redmond, WA, USA). […] Graphing the maximum inward currents against the log of agonist concentration produces typical concentration-activation and concentration-inhibition curves, which can be accurately described using individual Hill equations. The concentration-activation curves were fitted using the following equation: Y=100/1+10^H(logEC50-X) where Y is the normalized response, logEC50 is the logarithm of the concentration of agonist eliciting half-maximal current amplitude, X is the log of the dose or concentration, and H is the slope factor or Hill slope. The same equation was used for the concentration-inhibition curves but logEC50 was replaced by logIC50 (half-maximal inhibitory concentration).
(§3) The agonist and the drug were then washed off for 15 s and the oocyte was exposed again to the same drug concentration for 25 s before increasing to the next concentration.

Data set [2] concerns the target Hsa-GABA α3β2γ2 (Homo sapiens, UniProt P18507+P34903+P47870). The experiment in a line: Two-electrode voltage-clamp inhibition of GABA current, receptor expressed in Xenopus oocytes. Conditions: Xenopus oocytes, −80 mV, 60 s pre-exposure, co-applied with GABA 1 µM (near EC10).
Source text: (§4) Complementary DNA (cDNA) encoding for the human GABAA proteins α1 (NM_001127645.2), α2 (NM_001377146.1), α3 (KJ620007.1), α4 (NM_000809.4), α5 (NM_000810.4), α6 (NM_000811.3), β2 (XM_054352312.1), β3 (M82919.1), γ2 (NM_000816.3) and δ (NM_000815.5) were ordered from Genewiz (www.genewiz.com; Leipzig, Germany); for each gene, GenBank accession numbers are provided in parentheses. When necessary, silent mutations were introduced to break NheI or XhoI internal restriction sites. The corresponding open reading frames (ORF) were cloned into the pT7-TS transcription vector (introducing X. laevis β-globin untranslated cDNA to the 5’ and 3’ ends of the gene), following a procedure described in detail in a previous publication. The same process was used to obtain cDNA encoding canine GABAA proteins α4 (XM_025435560.1), α6 (XM_022417729.1) and δ (XM_005620414.2). Gene α2 (XM_025435664.1), α3 (XM_549343.5), α5 (XM_545805.6) and β3 (XM_025437408.1) were obtained by PCR; GenBank reference accession numbers are provided in parentheses. RNA extraction, cDNA synthesis and PCR amplification were performed as described previously. Total RNA was extracted from a piece of dog brain (Beagle breed; Canis lupus familiaris) from which 1 µg of total RNA (DNase-treated) was reverse-transcribed to cDNA using a (dT)30 primer and SuperScript III Reverse Transcriptase (Invitrogen, Thermo Fisher Scientific, Waltham, MA, USA). Gene-specific primers (Additional file 1: Table S1) were designed using Primer 3 software (http://frodo.wi.mit.edu/). […] The cycling conditions were: 98 °C for 30 s; then 38 cycles of 98 °C for 10 s, 58 °C for 30 s and 72 °C for 90 s; followed by 72 °C for 5 min. The dog subunits α1 (XM_546261.5), β2 (XM_014113040.1) and γ2 (XM_546259.5) had been previously amplified and described in a study by Rufener et al..
as §1
as §2, with “equations.” for “equations. The concentration-activation curves were fitted using the following equation: Y=100/1+10^H(logEC50-X) where Y is the normalized response, logEC50 is the logarithm of the concentration of agonist eliciting half-maximal current amplitude, X is the log of the dose or concentration, and H is the slope factor or Hill slope. The same equation was used for the concentration-inhibition curves but logEC50 was replaced by logIC50 (half-maximal inhibitory concentration).”

Data set [3] addresses Hsa-GABA α1β2γ2 (Homo sapiens, UniProt P14867+P18507+P47870). The data set is described as above. Particulars: Xenopus oocytes, −80 mV, 60 s pre-exposure, co-applied with GABA 1 µM (near EC10).
Source text: as §4, §1
as §2, with “equations.” for “equations. The concentration-activation curves were fitted using the following equation: Y=100/1+10^H(logEC50-X) where Y is the normalized response, logEC50 is the logarithm of the concentration of agonist eliciting half-maximal current amplitude, X is the log of the dose or concentration, and H is the slope factor or Hill slope. The same equation was used for the concentration-inhibition curves but logEC50 was replaced by logIC50 (half-maximal inhibitory concentration).”

The target in data set [4] is Hsa-GABA α2β3γ2 (Homo sapiens, UniProt P18507+P28472+P47869). Described as above. Conditions: Xenopus oocytes, −80 mV, 60 s pre-exposure, co-applied with GABA 1 µM (near EC10).
Source text: as §4, §1
as §2, with “equations.” for “equations. The concentration-activation curves were fitted using the following equation: Y=100/1+10^H(logEC50-X) where Y is the normalized response, logEC50 is the logarithm of the concentration of agonist eliciting half-maximal current amplitude, X is the log of the dose or concentration, and H is the slope factor or Hill slope. The same equation was used for the concentration-inhibition curves but logEC50 was replaced by logIC50 (half-maximal inhibitory concentration).”

For data set [5], the target named is Hsa-GABA α6β2γ2 (Homo sapiens, UniProt P18507+P47870+Q16445). The description is as above. Particulars: Xenopus oocytes, −80 mV, 60 s pre-exposure, co-applied with GABA 0.3 µM (near EC10).
Sequence of Hsa-GABA α6β2γ2 (Q16445 20-453): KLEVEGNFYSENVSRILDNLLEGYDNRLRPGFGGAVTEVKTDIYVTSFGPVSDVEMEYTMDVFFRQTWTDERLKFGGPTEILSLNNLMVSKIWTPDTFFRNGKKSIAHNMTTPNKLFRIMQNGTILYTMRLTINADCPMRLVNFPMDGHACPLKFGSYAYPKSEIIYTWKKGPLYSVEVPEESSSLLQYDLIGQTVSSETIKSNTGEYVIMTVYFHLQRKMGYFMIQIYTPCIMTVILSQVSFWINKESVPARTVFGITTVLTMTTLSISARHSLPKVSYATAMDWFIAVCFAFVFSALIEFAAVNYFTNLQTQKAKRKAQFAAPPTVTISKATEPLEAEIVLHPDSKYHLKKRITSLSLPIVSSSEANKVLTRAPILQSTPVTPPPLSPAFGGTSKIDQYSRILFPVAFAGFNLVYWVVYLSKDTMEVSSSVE
Sequence of Hsa-GABA α6β2γ2 (P47870 26-474 isoform P47870-1 limits assumed): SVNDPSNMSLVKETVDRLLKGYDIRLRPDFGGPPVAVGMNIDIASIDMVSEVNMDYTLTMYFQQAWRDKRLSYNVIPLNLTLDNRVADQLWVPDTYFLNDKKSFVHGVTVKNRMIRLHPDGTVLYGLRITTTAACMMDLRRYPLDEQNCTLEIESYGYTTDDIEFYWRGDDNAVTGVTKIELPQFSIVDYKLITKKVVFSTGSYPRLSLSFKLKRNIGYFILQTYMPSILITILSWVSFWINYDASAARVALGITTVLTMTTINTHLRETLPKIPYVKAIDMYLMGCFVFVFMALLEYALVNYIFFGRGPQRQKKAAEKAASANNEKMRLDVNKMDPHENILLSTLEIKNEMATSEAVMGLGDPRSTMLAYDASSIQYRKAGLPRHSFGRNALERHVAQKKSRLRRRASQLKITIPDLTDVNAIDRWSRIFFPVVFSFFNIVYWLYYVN
Sequence of Hsa-GABA α6β2γ2 (P18507 40-467 isoform P18507-1 limits assumed): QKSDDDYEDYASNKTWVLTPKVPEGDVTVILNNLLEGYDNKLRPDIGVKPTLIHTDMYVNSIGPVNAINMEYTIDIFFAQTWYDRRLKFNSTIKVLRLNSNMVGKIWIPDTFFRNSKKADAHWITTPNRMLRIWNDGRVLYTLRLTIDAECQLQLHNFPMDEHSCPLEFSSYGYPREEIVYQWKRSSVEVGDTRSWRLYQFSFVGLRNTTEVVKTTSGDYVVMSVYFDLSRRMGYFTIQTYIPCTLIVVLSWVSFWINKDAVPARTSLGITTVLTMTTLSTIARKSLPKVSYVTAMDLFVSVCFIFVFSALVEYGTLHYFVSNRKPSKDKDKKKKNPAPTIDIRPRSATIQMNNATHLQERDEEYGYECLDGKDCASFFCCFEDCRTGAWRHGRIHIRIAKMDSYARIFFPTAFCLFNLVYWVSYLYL
Source text: as §4, §1
as §2, with “equations.” for “equations. The concentration-activation curves were fitted using the following equation: Y=100/1+10^H(logEC50-X) where Y is the normalized response, logEC50 is the logarithm of the concentration of agonist eliciting half-maximal current amplitude, X is the log of the dose or concentration, and H is the slope factor or Hill slope. The same equation was used for the concentration-inhibition curves but logEC50 was replaced by logIC50 (half-maximal inhibitory concentration).”

In data set [6] the target is Hsa-GABA α5β2γ2 (Homo sapiens, UniProt P18507+P31644+P47870). The data set is described as above. Particulars: Xenopus oocytes, −80 mV, 60 s pre-exposure, co-applied with GABA 0.3 µM (near EC10).
Source text: as §4, §1
as §2, with “equations.” for “equations. The concentration-activation curves were fitted using the following equation: Y=100/1+10^H(logEC50-X) where Y is the normalized response, logEC50 is the logarithm of the concentration of agonist eliciting half-maximal current amplitude, X is the log of the dose or concentration, and H is the slope factor or Hill slope. The same equation was used for the concentration-inhibition curves but logEC50 was replaced by logIC50 (half-maximal inhibitory concentration).”

For data set [7], the target named is Hsa-GABA α2β2γ2 (Homo sapiens, UniProt P18507+P47869+P47870). The data set is described as above. Particulars: Xenopus oocytes, −80 mV, 60 s pre-exposure, co-applied with GABA 3 µM (near EC10).
Source text: as §4, §1
as §2, with “equations.” for “equations. The concentration-activation curves were fitted using the following equation: Y=100/1+10^H(logEC50-X) where Y is the normalized response, logEC50 is the logarithm of the concentration of agonist eliciting half-maximal current amplitude, X is the log of the dose or concentration, and H is the slope factor or Hill slope. The same equation was used for the concentration-inhibition curves but logEC50 was replaced by logIC50 (half-maximal inhibitory concentration).”

Data set [8] concerns Hsa-GABARs. The experiment in a line: Voltage-clamp inhibition, summary over the six human subunit combinations. As to the method: as §1, §2, §3
The test system of data set [9] is Clu-GABARs. The data set can be described thus: Voltage-clamp inhibition, summary over the five canine subunit combinations. It is filed as cell-based, Canis lupus familiaris. Conditions: at 30 μM. As to the method: as §1, §2, §3
For data set [10], the target named is Clu-GABA α2β2γ2 (Canis lupus familiaris, UniProt A0A8I3RPG5+A0A8I3S1N5+E2RSQ0). The experiment in a line: Two-electrode voltage-clamp inhibition of GABA current, receptor expressed in Xenopus oocytes. It counts as cell-based. Conditions: Xenopus oocytes, −80 mV, 60 s pre-exposure, co-applied with GABA 5 µM (near EC10).
Source text: as §4, §1
as §2, with “equations.” for “equations. The concentration-activation curves were fitted using the following equation: Y=100/1+10^H(logEC50-X) where Y is the normalized response, logEC50 is the logarithm of the concentration of agonist eliciting half-maximal current amplitude, X is the log of the dose or concentration, and H is the slope factor or Hill slope. The same equation was used for the concentration-inhibition curves but logEC50 was replaced by logIC50 (half-maximal inhibitory concentration).”

Data set [11] deals with Clu-GABA α1β2γ2 (Canis lupus familiaris, UniProt A0A2H4NNI8+A0A8I3RPG5+E2RSQ0). Described as above. It counts as cell-based. Particulars: Xenopus oocytes, −80 mV, 60 s pre-exposure, co-applied with GABA 1 µM (near EC10).
Source text: as §4, §1
as §2, with “equations.” for “equations. The concentration-activation curves were fitted using the following equation: Y=100/1+10^H(logEC50-X) where Y is the normalized response, logEC50 is the logarithm of the concentration of agonist eliciting half-maximal current amplitude, X is the log of the dose or concentration, and H is the slope factor or Hill slope. The same equation was used for the concentration-inhibition curves but logEC50 was replaced by logIC50 (half-maximal inhibitory concentration).”

For data set [12], the target named is Clu-GABA α2β3γ2 (Canis lupus familiaris, UniProt A0A8I3NUI4+A0A8I3S1N5+E2RSQ0). The data set is described as above. It counts as cell-based. Conditions: Xenopus oocytes, −80 mV, 60 s pre-exposure, co-applied with GABA 1 µM (near EC10).
Source text: as §4, §1
as §2, with “equations.” for “equations. The concentration-activation curves were fitted using the following equation: Y=100/1+10^H(logEC50-X) where Y is the normalized response, logEC50 is the logarithm of the concentration of agonist eliciting half-maximal current amplitude, X is the log of the dose or concentration, and H is the slope factor or Hill slope. The same equation was used for the concentration-inhibition curves but logEC50 was replaced by logIC50 (half-maximal inhibitory concentration).”

Data set [13] concerns the target Clu-GABA α5β2γ2 (Canis lupus familiaris, UniProt A0A8I3PC22+A0A8I3RPG5+E2RSQ0). The data set is described as above. Particulars: Xenopus oocytes, −80 mV, 60 s pre-exposure, co-applied with GABA 1 µM (near EC10). It counts as cell-based.
Source text: as §4, §1
as §2, with “equations.” for “equations. The concentration-activation curves were fitted using the following equation: Y=100/1+10^H(logEC50-X) where Y is the normalized response, logEC50 is the logarithm of the concentration of agonist eliciting half-maximal current amplitude, X is the log of the dose or concentration, and H is the slope factor or Hill slope. The same equation was used for the concentration-inhibition curves but logEC50 was replaced by logIC50 (half-maximal inhibitory concentration).”

Data set [14] addresses Clu-GABA α3β2γ2 (Canis lupus familiaris, UniProt A0A8I3PRS3+A0A8I3RPG5+E2RSQ0). The description is as above. It is filed as cell-based. Conditions: Xenopus oocytes, −80 mV, 60 s pre-exposure, co-applied with GABA 0.5 µM (near EC10).
Source text: as §4, §1
as §2, with “equations.” for “equations. The concentration-activation curves were fitted using the following equation: Y=100/1+10^H(logEC50-X) where Y is the normalized response, logEC50 is the logarithm of the concentration of agonist eliciting half-maximal current amplitude, X is the log of the dose or concentration, and H is the slope factor or Hill slope. The same equation was used for the concentration-inhibition curves but logEC50 was replaced by logIC50 (half-maximal inhibitory concentration).”

Details of data set [15]: method as in PMID 33733534. Particulars: cited from earlier work.

Sequence of Clu-GABA α3β2γ2 (A0A8I3PRS3 29-259): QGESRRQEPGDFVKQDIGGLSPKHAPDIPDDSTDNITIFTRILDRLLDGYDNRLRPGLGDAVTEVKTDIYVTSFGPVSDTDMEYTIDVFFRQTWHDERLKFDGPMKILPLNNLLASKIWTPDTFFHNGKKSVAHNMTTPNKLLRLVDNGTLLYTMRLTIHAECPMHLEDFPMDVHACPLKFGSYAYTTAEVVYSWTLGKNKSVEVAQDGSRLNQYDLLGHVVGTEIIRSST
Sequence of Clu-GABA α3β2γ2 (A0A8I3RPG5 25-473): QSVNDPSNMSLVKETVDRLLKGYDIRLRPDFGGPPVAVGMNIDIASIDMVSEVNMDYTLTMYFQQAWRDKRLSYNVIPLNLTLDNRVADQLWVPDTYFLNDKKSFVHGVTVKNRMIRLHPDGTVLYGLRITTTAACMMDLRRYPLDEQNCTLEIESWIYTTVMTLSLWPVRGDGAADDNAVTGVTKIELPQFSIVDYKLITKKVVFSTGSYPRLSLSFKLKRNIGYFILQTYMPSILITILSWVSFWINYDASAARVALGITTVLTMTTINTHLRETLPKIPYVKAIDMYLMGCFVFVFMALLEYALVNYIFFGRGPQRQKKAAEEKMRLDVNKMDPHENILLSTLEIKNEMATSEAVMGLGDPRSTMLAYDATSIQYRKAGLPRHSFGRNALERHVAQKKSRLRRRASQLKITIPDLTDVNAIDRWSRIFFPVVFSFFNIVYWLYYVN
Sequence of Clu-GABA α3β2γ2 (E2RSQ0 40-467): as the sequence (P18507 40-467 isoform P18507-1 limits assumed) above
Sequence of Hsa-GABA α1β2γ2 (P14867 28-456): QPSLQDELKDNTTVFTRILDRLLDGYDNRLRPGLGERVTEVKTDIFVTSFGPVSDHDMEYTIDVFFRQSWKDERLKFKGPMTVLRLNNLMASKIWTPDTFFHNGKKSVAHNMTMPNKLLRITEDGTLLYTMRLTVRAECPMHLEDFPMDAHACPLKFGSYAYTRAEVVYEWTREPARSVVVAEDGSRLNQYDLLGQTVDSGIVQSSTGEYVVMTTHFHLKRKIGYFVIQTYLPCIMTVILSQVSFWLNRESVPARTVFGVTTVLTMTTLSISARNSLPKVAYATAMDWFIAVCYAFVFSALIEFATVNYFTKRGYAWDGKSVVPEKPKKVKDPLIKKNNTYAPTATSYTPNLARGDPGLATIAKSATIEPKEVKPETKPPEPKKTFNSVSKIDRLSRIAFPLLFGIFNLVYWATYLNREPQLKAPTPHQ
Sequence of Hsa-GABA α1β2γ2 (P47870 26-474 isoform P47870-1 limits assumed): as the sequence (P47870 26-474 isoform P47870-1 limits assumed) above
Sequence of Hsa-GABA α1β2γ2 (P18507 40-467 isoform P18507-1 limits assumed): as the sequence (P18507 40-467 isoform P18507-1 limits assumed) above

Take `CS(=O)(=O)CC(=O)N1CC2(C1)OCc1cc(C3=NO[C@@](c4cc(Cl)c(F)c(Cl)c4)(C(F)(F)F)C3)ccc12` [Sarolaner, sarolaner]: the “inhibitory effect on human and canine GABARs (in words)” value in data set [1] was “partial to high inhibition”. The IC50 in [2] was 13.4 µM; in [3] it was 21.9 µM; in data set [4], above 30 µM; in [5] it was 16.1 µM; in data set [6], 8.4 µM; in data set [7] it was 19.5 µM. For the same compound, the IC50 came to 10.2 µM in data set [10]; 21.8 µM in data set [11]; 13.4 µM in data set [12]; 10.2 µM in data set [13]; 13.1 µM in data set [14]. The “average GABA current inhibition” value is reported as 53% in data set [8] (at 30 μM, average over Hsa-GABARs) and 57% in data set [9]. Further, in [8] (tested up to 30 μM), the “inhibition of human GABARs (in words)” value is “partial inhibition”. Also, the Cmax in data set [15] (dose of 2 mg/kg body weight, read-out: Cmax in dog plasma) is 1900 nM. Further, the “maximum in vivo concentration in dog plasma” value in [15] (oral treatment at the minimum recommended dose) was 1.9 µM.
